According to patent US20120270237A9, “METHODS FOR THE IDENTIFICATION OF KINASE INTERACTING MOLECULES AND FOR THE PURIFICATION OF KINASE PROTEINS” (Cellzone AG, priority 2009, published 2012):

Legend:
Test in all cases: Kinobeads competition binding, HL60 cell lysate
Parameters in all cases: endogenous in cells
Conditions in all cases: 10 μM free compound
[1] = target: CDK2 (Homo sapiens, UniProt P24941)
Summary of the method: (§1)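 Competition readout: iTRAQ reporter-ion peak areas (LC-MS/MS) comparing bead-bound kinase with 10 μM free compound versus 0.5% DMSO. Compound-immobilized Sepharose was incubated with HL60 lysate, 50 mg protein, 2 h, 4 °C, then washed, eluted in SDS buffer and resolved by SDS-PAGE.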

[2] = target: CDC2 (Homo sapiens, UniProt P06493)
Summary of the method: as §1

[3] = target: T1, NEK9 (Homo sapiens, UniProt Q8TD19)
T1 sequence (Q8TD19 1-979): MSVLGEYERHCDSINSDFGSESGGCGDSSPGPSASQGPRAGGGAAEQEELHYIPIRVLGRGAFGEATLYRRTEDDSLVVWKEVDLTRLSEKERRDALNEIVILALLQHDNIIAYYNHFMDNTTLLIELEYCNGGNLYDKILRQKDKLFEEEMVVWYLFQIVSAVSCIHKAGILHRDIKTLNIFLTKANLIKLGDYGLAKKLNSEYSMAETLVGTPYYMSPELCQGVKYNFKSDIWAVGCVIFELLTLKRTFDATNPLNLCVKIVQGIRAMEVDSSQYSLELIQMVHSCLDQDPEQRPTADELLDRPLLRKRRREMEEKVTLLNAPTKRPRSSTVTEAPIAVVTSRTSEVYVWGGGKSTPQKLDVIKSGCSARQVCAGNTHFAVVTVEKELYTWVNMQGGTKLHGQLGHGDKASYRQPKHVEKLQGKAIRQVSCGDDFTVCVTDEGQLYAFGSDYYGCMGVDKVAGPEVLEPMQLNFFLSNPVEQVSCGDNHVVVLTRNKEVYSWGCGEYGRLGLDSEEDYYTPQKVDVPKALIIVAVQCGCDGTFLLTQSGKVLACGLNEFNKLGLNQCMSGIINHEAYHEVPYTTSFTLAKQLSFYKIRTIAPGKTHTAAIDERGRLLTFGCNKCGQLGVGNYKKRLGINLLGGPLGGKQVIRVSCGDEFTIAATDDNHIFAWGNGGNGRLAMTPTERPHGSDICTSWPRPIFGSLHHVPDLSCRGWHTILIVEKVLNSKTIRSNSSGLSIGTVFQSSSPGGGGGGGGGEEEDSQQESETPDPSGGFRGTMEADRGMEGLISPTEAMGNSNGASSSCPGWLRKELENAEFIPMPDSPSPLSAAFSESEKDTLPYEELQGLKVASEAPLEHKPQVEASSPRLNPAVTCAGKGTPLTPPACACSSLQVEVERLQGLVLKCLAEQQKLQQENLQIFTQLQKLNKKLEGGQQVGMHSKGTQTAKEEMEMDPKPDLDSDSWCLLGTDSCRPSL
Summary of the method: as §1

[4] = target: JNK1 (Homo sapiens, UniProt P45983)
Summary of the method: as §1

[5] = target: STK33 (Homo sapiens, UniProt Q9BYT3)
Summary of the method: as §1

STK33, sequence (Q9BYT3 whole entry): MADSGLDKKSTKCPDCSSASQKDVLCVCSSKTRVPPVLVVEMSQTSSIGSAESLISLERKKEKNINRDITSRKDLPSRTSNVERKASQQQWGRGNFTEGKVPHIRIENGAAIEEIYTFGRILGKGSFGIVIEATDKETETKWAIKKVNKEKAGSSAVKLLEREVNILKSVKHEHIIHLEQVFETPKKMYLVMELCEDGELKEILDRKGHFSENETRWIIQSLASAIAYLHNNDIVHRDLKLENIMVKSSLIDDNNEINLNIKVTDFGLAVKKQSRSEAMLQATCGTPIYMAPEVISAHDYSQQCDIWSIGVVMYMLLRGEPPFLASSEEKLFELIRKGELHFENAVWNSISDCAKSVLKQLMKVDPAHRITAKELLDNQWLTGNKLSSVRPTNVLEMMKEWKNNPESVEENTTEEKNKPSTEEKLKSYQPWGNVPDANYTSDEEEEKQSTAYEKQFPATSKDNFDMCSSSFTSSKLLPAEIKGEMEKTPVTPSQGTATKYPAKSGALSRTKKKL
CDC2, sequence (P06493 whole entry): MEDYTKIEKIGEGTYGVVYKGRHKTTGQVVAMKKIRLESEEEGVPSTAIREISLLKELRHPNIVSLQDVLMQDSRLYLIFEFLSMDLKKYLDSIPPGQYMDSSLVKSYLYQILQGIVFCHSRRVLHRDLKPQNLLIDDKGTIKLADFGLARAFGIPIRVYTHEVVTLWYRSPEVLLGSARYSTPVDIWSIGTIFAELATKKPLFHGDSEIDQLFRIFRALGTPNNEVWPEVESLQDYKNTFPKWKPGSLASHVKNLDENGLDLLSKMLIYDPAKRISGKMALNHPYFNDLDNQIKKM
JNK1, sequence (P45983 whole entry): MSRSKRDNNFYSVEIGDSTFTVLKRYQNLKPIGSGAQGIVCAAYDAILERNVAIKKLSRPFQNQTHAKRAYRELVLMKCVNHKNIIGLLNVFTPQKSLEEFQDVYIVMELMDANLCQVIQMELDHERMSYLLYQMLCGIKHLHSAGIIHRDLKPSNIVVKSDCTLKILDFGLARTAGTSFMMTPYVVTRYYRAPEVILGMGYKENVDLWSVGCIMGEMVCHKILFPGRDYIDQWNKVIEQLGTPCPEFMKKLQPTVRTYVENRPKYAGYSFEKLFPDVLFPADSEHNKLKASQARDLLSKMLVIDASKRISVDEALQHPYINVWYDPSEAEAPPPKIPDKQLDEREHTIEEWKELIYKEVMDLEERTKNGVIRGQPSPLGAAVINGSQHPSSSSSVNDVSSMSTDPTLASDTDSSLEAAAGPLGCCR

- Competition % [1]: 95.1%
- inhibition at 10 µM [2]: 93.1%
- Competition % [4]: 88.8%
- inhibition at 10 µM [5]: 96.9%
Structure (SMILES): CS(=O)(=O)Nc1ccccc1Nc1nc(Nc2cccc(OCCN)c2)ncc1Cl [CZC31326, N-(2-(2-(3-(2-aminoethoxy)phenylamino)-5-chloropyrimidin-4-ylamino)phenyl)methanesulfonamide]
- inhibition at 10 µM [3]: 93%
